# Several values for one entry are separate records, joined by “and”; a condition that tells them apart may be missing. Equal values may be shown once.
# Legend:
# Type in all cases: cell-based
# [1] = test system: HIV-1LAI selected with EB-PFA, passage 15 (W88G, L214F); assay: Susceptibility of virus selected in vitro with EB-PFA
# Description: (§1) Antiviral Susceptibility Assays. The antiviral activity of each compound was determined by inoculating MT-2 cells with HIV-1LAI at a multiplicity of infection (MOI) of 0.01 TCID50/cell, followed by incubation in the presence of three-fold serial drug dilutions (3 wells per dilution) (see Mellors, et. al., Antimicrob. Agents Chemother. 39:1087-1092). Five or seven days after infection, culture supernatants were harvested, lysed with 0.5% triton-X 100 and assayed for p24 antigen concentration using a commercial ELISA assay (DuPont, NEN Products, Wilmington, Del.). The antiviral activity of the compounds is expressed as the IC50, which is the concentration required to inhibit 50% of p24 antigen production. The fold-resistance of a test virus is calculated by dividing the IC50 of the test virus by the IC50 of the HIV-1LAI control virus.
# (§2) Selection of Resistant Viruses. […] Viral cytopathic effects (CPE) were monitored daily. […] The passaged virus was monitored regularly for a reduction in susceptibility to the compounds by determining the EC50 relative to unpassaged HIV-1LAI (Mellors, et. al., Antimicrob. Agents Chemother. 39:1087-1092). […]
# [2] = test system: HIV-1LAI selected with MB-PFA, passage 15; assay: Susceptibility of virus selected in vitro with MB-PFA
# Description: as §1
# Selection of Resistant Viruses. Selections were initiated by inoculating 1.0×10^6 MT-2 cells at an MOI of 0.1 with plasmid derived HIV-1LAI which had been passaged as cell-free virus 10 times in MT-2 cells in the absence of compound (see Bazmi, et. al., Antimicrobial Agents and Chemotherapy 44:1783-1788). Cells were pretreated with drug for two hours prior to inoculation with virus. For each selection, the starting concentration was the IC50 of the compound, and the selective pressure (i.e. drug concentration) was doubled every three passages. Viral cytopathic effects (CPE) were monitored daily. At 2+CPE (≧2 syncitia per 100× field) cell free virus supernatant was harvested and used to initiate a new cycle of infection in fresh MT-2 cells. The passaged virus was monitored regularly for a reduction in susceptibility to the compounds by determining the EC50 relative to unpassaged HIV-1LAI (Mellors, et. al., Antimicrob. Agents Chemother. 39:1087-1092).
# Genetic Analyses. Virions were pelleted from culture supernatants by centrifugation at 25,000×g for 1 hour. Total RNA was extracted from the virus pellet using TRIZOL® Reagent (Gibco BRL, Grand Island, N.Y.) and resuspended in diethyl pyrocarbonate-treated sterile water. […]
# [3] = test system: HIV-1LAI selected with PFA, passage 17 (W88G); assay: Susceptibility of virus selected in vitro with PFA, passage 17
# Description: as §1, §2
# As controls for the invention compound selections, HIV-1LAI was passaged in the presence and absence of unmodified PFA. […] None of the mutations selected by the invention compounds or free PFA were detected in control viruses passaged in the absence of drug.
structure (smiles),measurement,setting,value
"CCCCCCCCCCCCCCCCCCOC[C@H](COP(=O)(O)C(=O)O)OCC [EB-PFA, 1-O-octadecyl-2-O-ethyl-sn-glycero-3-PFA]",EC50,"[1]; Table 6, passage 15 (W88G, L214F)",3.7 µM
same,Fold resist.,"[1]; Table 6, passage 15, relative to passage 0",41 and 41.1
"CCCCCCCCCCCCCCCCCCOC[C@H](COP(=O)(O)C(=O)O)OC [MB-PFA, 1-O-octadecyl-2-O-methyl-sn-glycero-3-PFA]",Fold resistance,"[2]; Example 6, repeated selection, after 15 passages (M164I and L214 mutations, not V75L)",31 fold
same,EC50,"[2]; Table 6, MB-PFA-selected virus, passage 15 (V75L, M164I, L214F)",2.16 µM
same,Fold resist.,"[2]; Table 6, MB-PFA-selected virus, passage 15, relative to passage 0",27 and 30.9
"O=C(O)P(=O)(O)O [PFA, phosphonoformate, reference compound]",EC50,"[3]; Human immunodeficiency virus 1, Table 6, passage 17 (W88G)",122 µM
same,Fold resist.,"[3]; Table 6, passage 17, relative to passage 0",23 and 23.2
